The text below walks through data of paper PMC10138657, “D-Xylose Blocks the Broad Negative Regulation of XylR on Lipid Metabolism and Affects Multiple Physiological Characteristics in Mycobacteria” (International Journal of Molecular Sciences, 2023).

One may read the Kd as the constant that tells how readily two partners part at equilibrium. Lower therefore signals tighter binding.

The test has as its target T1, XylR (Mycolicibacterium smegmatis, UniProt A0R508).
T1 construct: gene MSMEG_6022
T1 sequence (A0R508 1-393): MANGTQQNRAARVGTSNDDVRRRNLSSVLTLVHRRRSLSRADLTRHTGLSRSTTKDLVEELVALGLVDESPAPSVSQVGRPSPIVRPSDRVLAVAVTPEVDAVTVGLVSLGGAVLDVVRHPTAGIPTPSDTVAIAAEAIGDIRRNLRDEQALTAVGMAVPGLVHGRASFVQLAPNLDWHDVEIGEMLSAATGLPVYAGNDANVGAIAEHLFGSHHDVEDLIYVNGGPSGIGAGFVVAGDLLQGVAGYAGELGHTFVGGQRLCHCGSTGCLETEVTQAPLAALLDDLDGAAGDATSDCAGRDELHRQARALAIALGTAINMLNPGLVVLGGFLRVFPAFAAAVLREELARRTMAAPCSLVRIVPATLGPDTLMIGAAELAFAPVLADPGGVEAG
The experiment in a line: isothermal titration calorimetry. It is filed as binding. To be noted: 20 mM Tris-base, 100 mM NaCl, 5 mM MgCl2, pH 7.5; 35 μM XylR; independent-site model, n = 1.09 ± 0.04. Background: ITC needs no label: the signal is the heat of the interaction.

In turn, `OC1OC[C@@H](O)[C@H](O)[C@H]1O` (stereo partly drawn) [D-xylose] returned a Kd of 4.72 ± 0.6 µM.
